In US8143446B2, “Substituted acrylamide derivative and pharmaceutical composition comprising the same” (Daiichi Sankyo Company, Limited, priority 2005, dated 2012):

Legend:
[1] = system: adjuvant arthritis model rats; test: Evaluation of bone density decrease-suppressing activity and anti-arthritic activity (adjuvant arthritis model); type: in vivo, rat; conditions: oral 10 mg/kg once a day for 7 days from day 14 after adjuvant; for Paw edema-suppressing rate (%): hind paw volume on day 21, 8-week old female Lewis rats; for Bone density decrease-suppressing rate (%): thighbone bone density on day 21, 8-week old female Lewis rats
Protocol: In rheumatoid arthritis, not only swelling and pain caused by arthritis but also systemic bone mass decrease and articular destruction caused by a significant increase in bone resorption are observed.
The test was conducted using 8-week old female Lewis rats. Mycobacterium butyricum cells which were killed by heat were ground in an agate mortar, suspended in liquid paraffin sterilized by dry heat to a concentration of 2 mg/mL, and treated with ultrasound to prepare an adjuvant. Under ether anesthesia, rats in a control group other than a normal control group and rats in a test compound administration group were intradermally injected with 0.05 mL of this adjuvant each time (0.1 mL/rat in total) at two portions of the base of the tail. Starting from 14 days after the injection of the adjuvant, each rat was orally administered with 5 mL/kg of a test compound suspended in 0.5% MC once a day for 7 days. Similarly, the rats of the control group were administered with 0.5% MC alone. On the 21st day after the adjuvant injection, hind paw volumes were measured by using a paw edema volume determining device (MUROMACHI KIKAI, TK-101CMP). Then, the thighbone was biopsied. The thighbone was, after removing soft tissues, sufficiently fixed, dehydrated, and dried using ethanol. The bone density of the thighbone was measured with a bone density analyzer (Aloka, DOS-600 EX-IIIR). Five rats were used for each test group.
The evaluation was conducted by comparison tests with the normal control group and the control group and based on the bone density decrease-suppressing rate (%) and the paw edema-suppressing rate (%) calculated according to the following formulae: Bone density decrease-suppressing rate (%)=(1−([thighbone bone density in normal control group]−[thighbone bone density in test compound administration group])/([thighbone bone density in normal control group]−[thighbone bone density in control group]))×100 Paw edema-suppressing rate (%)=(1−([paw volume of test compound administration group]−[paw volume in normal control group])/([paw volume in control group]−[paw volume in normal control group]))×100

[2] = system: 4-week old male Wistar rats; test: Evaluation of blood calcium concentration-decreasing activity (serum calcium after oral dosing of immature rats); type: in vivo, rat; conditions: serum 6 hours after administration, fasted 4-week old male Wistar rats, vs normal control group
Protocol: The blood calcium concentration in a living body is strictly controlled and constantly maintained by intestinal absorption and urinary excretion and release (bone resorption) and adhesion (bone formation) in bone tissues. […] The bone resorption-suppressing activity of compounds according to the present invention was evaluated by administering the compounds to immature rats and observing decreases in blood calcium concentration as an index of the activity.
The test was conducted using 4-week old male Wistar rats fasted for 12 to 24 hours. Each compound to be tested was suspended in 0.5% methyl cellulose (MC). The suspension was orally administered to the rats at a dose of 5 mL/kg. Similarly, rats of a normal control group were administered with 0.5% MC alone. Then, blood was drawn from rat jugular vein under ether anesthesia 6 hours after the administration of each test compound or 0.5% MC. The blood was immediately centrifuged (10000 rpm, 5 minutes) at room temperature to separate serum. The calcium concentration of each serum was measured by an autoanalyzer (JEOL, JCA-BM2250). Five rats were used for each test group.
The evaluation was conducted by a comparative test with the normal control group and based on the serum calcium concentration-decreasing rate (%) calculated according to the following formula:
Serum calcium concentration-decreasing rate (%)=(([serum calcium concentration in normal control group] - [serum calcium concentration in test compound administration group])/[serum calcium concentration in normal control group])×100.

CC(C)Oc1ccc(/C=C(\NC(=O)c2ccc(OCCc3ccc(N(C)C)cc3)cc2)C(=O)NCCO)cc1.Cl
melting point: 103 to 105 °C

CC(C)COc1ccc(C(=O)N/C(=C\c2ccc3ccccc3c2)C(=O)NCCO)cc1 [Example 2-6, N-[(Z)-1-{[(2-hydroxyethyl)amino]carbonyl}-2-(2-naphthyl)vinyl]-4-isobutoxybenzamide]
melting point: 150 to 152 °C

CC(C)COc1ccc(C(=O)N/C(=C\c2ccc(C(F)(F)F)nc2)C(=O)NCCO)cc1 [Example 2-16, N-{(Z)-1-{[(2-hydroxyethyl)amino]carbonyl}-2-[6-(trifluoromethyl)pyridin-3-yl]vinyl}-4-isobutoxybenzamide]
melting point: 184 to 187 °C

CC(C)COc1ccc(C(=O)N/C(=C\c2ccc(OC(C)C)cc2)C(=O)NCCO)cn1 [Example 2-19, N-[(Z)-1-{[(2-hydroxyethyl)amino]carbonyl}-2-(4-isopropoxyphenyl)vinyl]-6-isobutoxynicotinamide]
melting point: 74 to 76 °C

CC(C)COc1ccc(C(=O)N/C(=C\c2ccc(OC(C)C)cc2)C(=O)NCCO)c(F)c1 [Example 2-21, 2-fluoro-N-[(Z)-1-{[(2-hydroxyethyl)amino]carbonyl}-2-(4-isopropoxyphenyl)vinyl]-4-isobutoxybenzamide]
melting point: 51 to 54 °C

COc1ccc(CCOc2ccc(C(=O)N/C(=C\c3ccc(OC(F)(F)F)cc3)C(=O)NCCO)cc2)cc1 [Example 3, N-{(Z)-1-{[(2-Hydroxyethyl)amino]carbonyl}-2-[4-(trifluoromethoxy)phenyl]vinyl}-4-[2-(4-methoxyphenyl)ethoxy]benzamide]
Paw edema-suppressing rate (%) [1]: 22% | Bone density decrease-suppressing rate (%) [1]: 57%

COc1ccc(CCOc2ccc(C(=O)N/C(=C\c3ccc(C4CC4)cc3)C(=O)NCCO)cc2)cc1 [Example 5, N-((Z)-2-(4-Cyclopropylphenyl)-1-{[(2-hydroxyethyl)amino]carbonyl}vinyl)-4-[2-(4-methoxyphenyl)ethoxy]benzamide]
Serum calcium concentration-decreasing rate (%) ([2]; administration dose 10 mg/kg): 27.6% | Paw edema-suppressing rate (%) [1]: 25% | Bone density decrease-suppressing rate (%) [1]: 54%

O=C(NCCO)/C(=C/c1ccc(C2CC2)cc1)NC(=O)c1ccc(OCCC2CC2)cc1 [Example 9, 4-(2-Cyclopropylethoxy)-N-((Z)-2-(4-cyclopropylphenyl)-1-{[(2-hydroxyethyl)amino]carbonyl}vinyl)benzamide]
Serum calcium concentration-decreasing rate (%) ([2]; administration dose 20 mg/kg): 29.3% | Paw edema-suppressing rate (%) [1]: 11% | Bone density decrease-suppressing rate (%) [1]: 37%

O=C(NCCO)/C(=C/c1ccc(OC(F)(F)F)cc1)NC(=O)c1ccc(OCCC2CC2)cc1 [Example 11, 4-(2-Cyclopropylethoxy)-N-{(Z)-1-{[(2-hydroxyethyl)amino]carbonyl}-2-[4-(trifluoromethoxy)phenyl]vinyl}benzamide]
Serum calcium concentration-decreasing rate (%) ([2]; administration dose 20 mg/kg): 30.6% | Paw edema-suppressing rate (%) [1]: 29% | Bone density decrease-suppressing rate (%) [1]: 40%

O=C(NCCO)/C(=C/c1ccc(Cl)cc1)NC(=O)c1ccc(OCCC2CC2)cc1 [Example 14, N-((Z)-2-(4-Chlorophenyl)-1-{[(2-hydroxyethyl)amino]carbonyl}vinyl)-4-(2-cyclopropylethoxy)benzamide]
Serum calcium concentration-decreasing rate (%) ([2]; administration dose 10 mg/kg): 33.2% | Paw edema-suppressing rate (%) [1]: 12% | Bone density decrease-suppressing rate (%) [1]: 86%

O=C(NCCO)/C(=C/c1ccc(OC2CC2)cc1)NC(=O)c1ccc(OCCC2CC2)cc1 [Example 16, 4-(2-Cyclopropylethoxy)-N-((Z)-2-[4-(cyclopropyloxy)phenyl]-1-{[(2-hydroxyethyl)amino]carbonyl}vinyl)benzamide]
Serum calcium concentration-decreasing rate (%) ([2]; administration dose 10 mg/kg): 27.2% | Paw edema-suppressing rate (%) [1]: 35% | Bone density decrease-suppressing rate (%) [1]: 70%
